Read-outs that look alike come from different tables or passages of the source.
Assays:
[1] = Amount of xenon gas dissolved in water, blood and oil with increasing pressure, computed by Henry's Law; type: physicochemical
Text: Dissolution of xenon gas in liquid, such as saline or other medical fluid, including an iodine X-ray contrast solution, provides a diagnostic contrast composition with a variety of available concentrations of xenon (mg) per mL of liquid based on a number of parameters, including pressure or presence of one or more concentration-augmenting compositions. For example, the concentration of the gas-evolving fluid in the carrier fluid may be dependent on pressure and temperature. In certain circumstances, it may be desirable to augment the concentration of the gas-evolving fluid beyond the carrying capacity of the carrier fluid at, for example, standard temperature and pressure. For example, according to Henry's Law, the amount of a gas dissolved in a liquid is proportional to the partial pressure of the gas in the volume of the liquid at a given temperature. Table 2 below uses the coefficients from Table 1 above to compute the amount of xenon gas that is dissolved in water, blood, and oil based on increasing pressure (from 1 atm to 30 atm).

[2] = 37 C., cited from earlier work
[3] = rats; cited from earlier work
[4] = humans, compared with rats; cited from earlier work

Row | Amount of Gas Dissolved in the Liquid ([1]; blood, 1 atm) [mgmXe/ml] | Amount of Gas Dissolved in the Liquid ([1]; blood, 2 atm) [mgmXe/ml] | Amount of Gas Dissolved in the Liquid ([1]; blood, 4 atm) [mgmXe/ml] | Amount of Gas Dissolved in the Liquid ([1]; blood, 5 atm) [mgmXe/ml] | Amount of Gas Dissolved in the Liquid ([1]; blood, 30 atm) [mgmXe/ml] | Amount of Gas Dissolved in the Liquid ([1]; oil, 1 atm) [mgmXe/ml] | Amount of Gas Dissolved in the Liquid ([1]; oil, 2 atm) [mgmXe/ml] | Amount of Gas Dissolved in the Liquid ([1]; oil, 4 atm) [mgmXe/ml] | Amount of Gas Dissolved in the Liquid ([1]; oil, 5 atm) [mgmXe/ml] | Amount of Gas Dissolved in the Liquid ([1]; oil, 30 atm) [mgmXe/ml] | Amount of Gas Dissolved in the Liquid ([1]; saline, 1 atm) [mgmXe/ml] | Amount of Gas Dissolved in the Liquid ([1]; saline, 2 atm) [mgmXe/ml] | Amount of Gas Dissolved in the Liquid ([1]; saline, 4 atm) [mgmXe/ml] | Amount of Gas Dissolved in the Liquid ([1]; saline, 5 atm) [mgmXe/ml] | Amount of Gas Dissolved in the Liquid ([1]; saline, 30 atm) [mgmXe/ml] | SMILES | bunsen constant ([2]; olive oil) | bunsen constant ([2]; seawater (*1.3 of pure water)) | bunsen constant ([2]; water) | retention half-life [3] | retention half-life [4]
1 | 0.7603 | 1.521 | 3.041 | 3.801 | 22.81 | 9.942 | 19.88 | 39.77 | 49.71 | 298.2589 | 0.4971 | 0.9942 | 1.988 | 2.485 | 14.91 | [Xe] [xenon] | 1.7 | 0.1105 | 0.085 |  | 
2 |  |  |  |  |  |  |  |  |  |  |  |  |  |  |  | FC(F)(F)C(F)(F)C(F)(F)C(F)(F)C(F)(F)C(F)(F)C(F)(F)C(F)(F)Br [Perfluorooctylbromide] |  |  |  | about 6 hours | shorter retention half-life in humans

Reference: patent US11576985B2, “Contrast imaging agent with dissolved gas-evolving fluid” (BAYER HEALTHCARE LLC, priority 2015, dated 2023)
